Data set [1] in a line: Protein binding in plasma (unknown origin). Type of data set: ADME, cell-free. Particulars: read-out: PPB (converted).
Data set [2] has as its target T1, Albumin (Homo sapiens, UniProt P02768). Nature of the data set: Protein binding in immobilized human serum albumin by HPLC analysis. Type of data set: ADME. Particulars: read-out: PB (converted).
The target of data set [3] is T1, Albumin. Briefly: Protein binding in human serum albumin after 4.5 hrs by LC-MS based rapid equilibrium dialysis method. The note with it: read-out: PB (converted). The format is ADME. (In equilibrium dialysis only unbound substance equilibrates across the membrane.)
Data set [4] has as its target T1, Albumin. Nature of the data set: Protein binding in immobilized human serum albumin after 15 mins by HPLC analysis. The format is ADME. The note with it: read-out: PB (converted).

T1 sequence (P02768 whole entry): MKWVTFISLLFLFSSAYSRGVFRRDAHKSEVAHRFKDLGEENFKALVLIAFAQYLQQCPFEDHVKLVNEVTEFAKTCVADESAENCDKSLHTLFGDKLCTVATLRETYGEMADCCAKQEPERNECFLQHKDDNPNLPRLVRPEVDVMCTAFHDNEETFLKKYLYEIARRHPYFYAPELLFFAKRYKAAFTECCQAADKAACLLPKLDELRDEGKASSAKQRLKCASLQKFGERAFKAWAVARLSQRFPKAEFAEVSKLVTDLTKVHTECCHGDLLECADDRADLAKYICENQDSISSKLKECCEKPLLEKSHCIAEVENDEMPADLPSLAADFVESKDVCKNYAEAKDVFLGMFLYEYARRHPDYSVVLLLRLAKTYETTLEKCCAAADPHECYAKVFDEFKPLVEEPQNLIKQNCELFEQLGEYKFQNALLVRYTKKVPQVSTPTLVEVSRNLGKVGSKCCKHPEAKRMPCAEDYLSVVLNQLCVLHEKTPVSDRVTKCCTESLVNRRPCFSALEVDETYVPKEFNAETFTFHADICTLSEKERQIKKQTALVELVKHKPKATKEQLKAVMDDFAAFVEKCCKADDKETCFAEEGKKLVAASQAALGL

In the case of `CC1=C(CC(=O)O)c2cc(F)ccc2/C1=C\c1ccc([S+](C)[O-])cc1` (stereo not drawn), in data set [1], the fraction unbound was 0.06 to 0.065. Consider `CCN(CC)CCC[C@H](C)Nc1ccnc2cc(Cl)ccc12`, for which the fraction unbound at Albumin [2] was 0.495. Consider `CCCCC1(C)C(=O)N(c2ccccc2)N(c2ccccc2)C1=O`, for which the fraction unbound at Albumin [2] is 0.15. Also, the fraction unbound at 4.5 h on Albumin [3] is 0.359. In the case of `CCCCc1c(OC)n(-c2ccccc2)n(-c2ccccc2)c1=O`, the fraction unbound at Albumin [2] was 0.071. Further, the fraction unbound at 4.5 h on Albumin [3] was 0.071. As for `CCOC(=O)c1cc(-c2ccc(F)cc2F)ccc1O`, the fraction unbound on Albumin [2] is 0.025.

On to `COC1=C(C(=O)Nc2ncc(C)s2)N(C)S(=O)(=O)c2ccccc21`, for which, on Albumin [2], the fraction unbound was 0.158. Besides, the fraction unbound at 4.5 h at Albumin [3] is 0.341. Consider `CO/N=C(\C(=O)N[C@@H]1C(=O)N2C(C(=O)O)=C(COC(N)=O)CS[C@H]12)c1ccco1` [CEFUROXIME], for which, in data set [1], the fraction unbound is 0.67 to 0.685. Take `NC(N)=Nc1nc(CSCCC(N)=NS(N)(=O)=O)cs1` [FAMOTIDINE]: the values for the fraction unbound (in data set [1]; on Albumin [2]) were 0.8 and 0.749, respectively. Also, the fraction unbound at 4.5 h on Albumin [3] was 0.956. Consider `CN(C)CCCN1c2ccccc2CCc2ccccc21` [IMIPRAMINE], for which the fraction unbound was 0.074 to 0.099 in data set [1] and 0.151 on Albumin [2]. Regarding `NNC(=O)c1ccncc1` [ISONIAZID], the fraction unbound in data set [1] was 1; at Albumin [2], 0.891. At Albumin [4], the fraction unbound at 0.25 h is 0.932. Turning to `CN1C(C(=O)Nc2ccccn2)=C(O)c2sc(Cl)cc2S1(=O)=O` [LORNOXICAM], the fraction unbound at 4.5 h at Albumin [3] was 0.02. Take `Cc1cnc(NC(=O)C2=C(O)c3ccccc3S(=O)(=O)N2C)s1` [MELOXICAM]: the fraction unbound at Albumin [2] was 0.001. Moreover, the fraction unbound at 4.5 h at Albumin [3] is 0.033.

On to `Cc1ncc([N+](=O)[O-])n1CCO` [METRONIDAZOLE], for which the fraction unbound in data set [1] is 0.89 to 0.9. For the molecule `O=C1CN=C(c2ccccc2)c2cc([N+](=O)[O-])ccc2N1` [NITRAZEPAM], the fraction unbound on Albumin [2] is 0.233.

On to `CNC(=O)Oc1ccc2c(c1)[C@]1(C)CCN(C)[C@@H]1N2C` [PHYSOSTIGMINE], for which the fraction unbound at Albumin [2] is 0.8. Further, the fraction unbound at 4.5 h on Albumin [3] is 0.903. `CN1C(C(=O)Nc2ccccn2)=C(O)c2ccccc2S1(=O)=O` [PIROXICAM]: the fraction unbound in data set [1] is 0.01.

Consider `CCN(CC)CCOC(=O)c1ccc(N)cc1` [PROCAINE], for which the fraction unbound in data set [1] was 0.94. Besides, at Albumin [4], the fraction unbound at 0.25 h is 0.64. On to `CC(C)NCC(O)COc1cccc2ccccc12` (stereo not drawn) [PROPRANOLOL], for which, on Albumin [2], the fraction unbound is 0.375.

Take `CN1C(C(=O)Nc2ccccn2)=C(O)c2sccc2S1(=O)=O` [TENOXICAM]: on Albumin [3], the fraction unbound at 4.5 h was 0.032. Turning to `COc1cc(Cc2cnc(N)nc2N)cc(OC)c1OC` [TRIMETHOPRIM], the fraction unbound in data set [1] was 0.585 to 0.625; at Albumin [2], 0.627. On Albumin [3], the fraction unbound at 4.5 h is 0.969.

The values above are taken from ChEMBL document CHEMBL4321884, “Human Serum Albumin Binding in a Vial: A Novel UV-pH Titration Method To Assist Drug Design” (J Med Chem, 2020).
